Assay results from article PMC5522078, “Discovery and characterization of small molecules targeting the DNA-binding ETS domain of ERG in prostate cancer” (Oncotarget, 2017).

What was measured:
[1] = test system: PNT1B-MOCK cells; assay: pETS-luc luciferase assay in PNT1B-MOCK cells (non-specific effect); format: cell-based, human; conditions: increasing concentrations, 48 h; compared to PNT1B-ERG cells
Experimental: All of the compounds selected from the virtual screening were tested in a luciferase-based ERG-responsive reporter assay, using two ERG-overexpressing cell lines, VCaP and PNT1B-ERG, previously developed in house. […] Data were normalized first to Renilla luciferase and then to the DMSO-media control on each plate, unless otherwise stated. Initial hit compounds were identified as those with an average normalized luciferase reading (firefly luciferase/Renilla luciferase readings) that is 60% or less of the average normalized luciferase reading of the DMSO-media control (i.e. 40% or more reduction of luciferase activity) at 10 μM. Representative example of raw Renilla luciferase readings presented in Supplementary Figure 9B. […]
Supplementary Figure 3: VPC-18005 selectively suppresses ERG-mediated transcriptional activity. […] Data are presented as the mean ± SEM of 4 technical replicates and expressed as luciferase:renilla ratio (activity).
(B) Luciferase assay was performed on VCaP cells transfected with ETS responsive luciferase reporter and treated with DMSO (0) or 0.1, 1, or 10 nM R1881 in the presence of 25 μM of VPC-18005. Data are presented as the mean ± SEM of 4 technical replicates and expressed as the luciferase:renilla ratio relative to VPC-18005 alone. […]

[2] = target: T1, ERG-ETS domain (Homo sapiens, UniProt P11308); assay: NMR-monitored titration (15N-HSQC) with ERG-ETS domain; conditions: 15N-HSQC titration, 1:1 binding isotherm; pH 6.5; read-out: KD for interaction with recombinant ERG-ETS domain
T1 construct: A pET28a plasmid encoding residues 307–400 of the ERG-ETS domain; His6 (cleaved yes); made in house; host or cells: E. coli BL21 (λDE3)
T1 sequence (P11308 307-400): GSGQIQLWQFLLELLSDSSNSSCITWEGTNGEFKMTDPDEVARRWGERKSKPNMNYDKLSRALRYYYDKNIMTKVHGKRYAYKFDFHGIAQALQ
Experimental: ERG-ETS domain expression and purification. A pET28a plasmid encoding residues 307–400 of the ERG-ETS domain was expressed in E. coli BL21 (λDE3). Cultures of 1 L were grown at 37°C in M9 media supplied with 3 gm/L ^13C6-glucose and/or 1 gm/L ^15NH4Cl. Cells were allowed to grow to O.D.600 = 0.6 and protein expression was induced by adding 1 mM IPTG. After an induction time of 4 h, cells were harvested by centrifugation and stored at −80 °C for at least 1 round of freeze/thaw. Cells were resuspended in 40 mL of lysis buffer for every 1 L of culture. Cells were lysed by passing through 5 rounds of homogenization and 10 mins of sonication. The cell lysate centrifuged at 15k rpm for 1 hr, and the supernatant subjected to nickel column purification. The column was washed using 25 mM imidazole (50 mM phosphate, 1 M NaCl, pH 7.4) and proteins were eluted with 1 M imidazole. Fractions containing the ETS domain were confirmed by SDS-PAGE and pooled. […] NMR data were recorded at 25 or 28°C on cryoprobe-equipped 850 MHz Bruker Avance III spectrometer. Data were processed and analyzed using NMRpipe and Sparky. […] NMR-monitored titrations. Interactions of compounds with the ERG-ETS domain were monitored via sensitivity-enhanced ^15N-HSQC spectra. […] Chemical shift perturbations were calculated from the combined amide ^1H^N and ^15N shift changes as Δδ = [(0.2 × ΔδN)^2 + (ΔδH)^2]^1/2. […]

[3] = test system: SOX9; assay: SOX9 gene expression in VCaP cells; format: cell-based, human; conditions: 25 μM, with and without 1 nM R1881
Experimental: Total RNA was extracted from VCaP cells with the use of RNeasy Plus kit (Qiagen). Reverse transcription was performed with the use of the iScript First-Strand cDNA Synthesis Kit (Bio-Rad Laboratories) with 100 ng total RNA used as template. Real time reverse-transcription (RT) polymerase chain reaction (PCR) primers for ERG synthesized by IDT (forward, 5′- CGCAGATTATCGT GCCAGCAGAT -3′; reverse, 5′- CCATATTCTTTCACC GCCCACTCC-3′) and SOX9 (Quantitect primer assay, Qiagen). Real-time quantitative RT-PCR was performed in triplicate for each sample with the use of the ABI ViiA7 QPCR thermocycler. In each reaction, 1 μl cDNA, 1 μl forward and reverse primers (or 1 μl of Quantitect primers), and 6 μl Sybr Green Master Mix (Applied Biosystems) were added with water to make a final volume of 12 μl. All primers were used at a concentration of 5 μmol/l. PCR cycling conditions were 95°C for 10 minutes followed by 40 cycles of 95°C for 15 seconds, 60°C for 1 min. Data was normalized to reference genes: GAPDH (forward, 5′- […] -3′; reverse, 5′- […] -3′) The 2^−ΔΔCT method was used to compare samples. PCR product specificity was validated with the use of a melt curve.

[4] = target: ETS domain of PU.1 (Homo sapiens, UniProt P17947); assay: Preliminary NMR spectroscopic experiments, PU.1; format: binding
[5] = test system: PC3 cells; design: method as in PMID 21559405; conditions: read-out: IC50 for cytotoxicity in PC3 cells; cited from earlier work

Row | SMILES | Impact on the reporter signal in PNT1B-MOCK [1] | Kd [2] [mM] | Basal and R1881-stimulated SOX9 mRNA and protein expression [3] | Interaction with the ETS domain of PU.1 [4] | IC50 [5] [mM]
1 | CC(C)c1ccc(C=N/N=C2\NC(=O)[C@@H](CC(=O)O)S2)cc1 (stereo in doubt) [VPC-18005, 2-((Z)-2-(((Z)-4-isopropylbenzylidene)hydrazono)-4-oxothiazolidin-5-yl)acetic acid] | minimal impact | ~3 | markedly decreased | interacts | 
2 | COc1ccc(C(=O)CC2(O)C(=O)Nc3c(Cl)ccc(Cl)c32)cc1 (centres unmarked) [YK-4-279, reference compound] |  |  |  |  | > 0.1
